Assay results as given in patent US20240269139A1, “COMPOUNDS FOR TARGETED PROTEIN DEGRADATION OF KINASES” (DANA-FARBER CANCER INSTITUTE, INC., priority 2020, published 2024).
“And” between values parts separate entries of the source, which are not always exact repeats. Equal values may be shown once. Read-outs that look alike come from different tables or passages of the source.

Assays:
Format in all cases: cell-based
[1] = target: protein kinases (human kinome) (Homo sapiens, UniProt P53671); conditions: for logFC LIMK2: LIMK2 (P53671), down; for logFC of LIMK2: LIMK2 P53671
[2] = target: T1, protein kinases (human kinome) (Homo sapiens, UniProt O14965)
T1 sequence (O14965 1-403): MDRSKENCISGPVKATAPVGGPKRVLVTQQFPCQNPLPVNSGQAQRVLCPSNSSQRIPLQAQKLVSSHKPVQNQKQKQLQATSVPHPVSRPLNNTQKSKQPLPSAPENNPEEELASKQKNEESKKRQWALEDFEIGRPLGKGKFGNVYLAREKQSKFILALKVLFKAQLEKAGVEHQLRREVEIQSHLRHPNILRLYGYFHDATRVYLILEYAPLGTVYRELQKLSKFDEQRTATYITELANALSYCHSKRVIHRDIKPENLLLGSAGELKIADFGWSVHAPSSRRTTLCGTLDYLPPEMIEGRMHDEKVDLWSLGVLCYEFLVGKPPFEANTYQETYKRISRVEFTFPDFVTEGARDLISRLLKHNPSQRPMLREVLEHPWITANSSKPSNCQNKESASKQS

[3] = target: protein kinases (human kinome) (Homo sapiens, UniProt Q9H0K1); conditions: for logFC of SIK2: Accession Q9H0K1; for logFC SIK2 (Q9H0K1): direction of change down
[4] = target: T2, protein kinases (human kinome) (Homo sapiens, UniProt O75385); conditions: for logFC ULK1: ULK1 O75385
T2 sequence (O75385 1-1050): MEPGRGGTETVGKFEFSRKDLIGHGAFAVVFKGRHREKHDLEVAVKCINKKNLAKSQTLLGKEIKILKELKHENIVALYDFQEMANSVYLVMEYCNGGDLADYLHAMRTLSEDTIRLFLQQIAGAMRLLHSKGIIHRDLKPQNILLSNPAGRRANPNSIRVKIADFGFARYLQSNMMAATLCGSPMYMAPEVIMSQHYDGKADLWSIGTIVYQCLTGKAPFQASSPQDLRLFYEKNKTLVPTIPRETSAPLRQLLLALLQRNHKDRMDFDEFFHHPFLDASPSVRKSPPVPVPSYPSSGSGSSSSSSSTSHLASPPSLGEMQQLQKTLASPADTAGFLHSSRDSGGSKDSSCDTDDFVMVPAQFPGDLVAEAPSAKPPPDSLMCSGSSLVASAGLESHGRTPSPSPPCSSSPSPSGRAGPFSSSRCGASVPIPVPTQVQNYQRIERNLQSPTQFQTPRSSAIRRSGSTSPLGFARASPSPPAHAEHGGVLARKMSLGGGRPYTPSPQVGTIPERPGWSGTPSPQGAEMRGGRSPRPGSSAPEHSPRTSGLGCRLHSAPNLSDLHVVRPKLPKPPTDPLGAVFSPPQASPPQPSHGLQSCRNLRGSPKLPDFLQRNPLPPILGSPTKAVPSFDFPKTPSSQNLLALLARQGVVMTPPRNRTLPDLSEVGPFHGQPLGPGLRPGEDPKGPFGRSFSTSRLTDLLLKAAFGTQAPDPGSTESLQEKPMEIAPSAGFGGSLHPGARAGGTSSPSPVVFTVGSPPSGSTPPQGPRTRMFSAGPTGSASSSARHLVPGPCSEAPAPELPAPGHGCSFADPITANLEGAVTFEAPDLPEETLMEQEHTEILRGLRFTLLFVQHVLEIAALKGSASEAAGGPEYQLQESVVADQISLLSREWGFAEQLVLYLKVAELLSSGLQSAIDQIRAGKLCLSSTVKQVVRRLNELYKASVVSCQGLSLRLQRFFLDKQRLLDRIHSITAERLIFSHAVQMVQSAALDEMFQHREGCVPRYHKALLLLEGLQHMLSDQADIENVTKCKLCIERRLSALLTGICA

[5] = target: protein kinases (human kinome) (Homo sapiens, UniProt P11802)
Chain of protein kinases (human kinome) (Homo sapiens, UniProt P11802) (P11802 whole entry): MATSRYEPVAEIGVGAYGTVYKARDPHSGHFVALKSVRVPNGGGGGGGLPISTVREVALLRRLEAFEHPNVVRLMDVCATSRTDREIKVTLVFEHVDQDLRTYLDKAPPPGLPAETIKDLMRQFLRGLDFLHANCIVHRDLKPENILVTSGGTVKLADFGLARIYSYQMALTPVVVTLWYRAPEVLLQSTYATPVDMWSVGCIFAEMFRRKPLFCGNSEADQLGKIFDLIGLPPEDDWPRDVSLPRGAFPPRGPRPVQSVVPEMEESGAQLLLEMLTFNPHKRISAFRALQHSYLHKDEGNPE

Chain of protein kinases (human kinome) (Homo sapiens, UniProt Q9H0K1) (Q9H0K1 whole entry): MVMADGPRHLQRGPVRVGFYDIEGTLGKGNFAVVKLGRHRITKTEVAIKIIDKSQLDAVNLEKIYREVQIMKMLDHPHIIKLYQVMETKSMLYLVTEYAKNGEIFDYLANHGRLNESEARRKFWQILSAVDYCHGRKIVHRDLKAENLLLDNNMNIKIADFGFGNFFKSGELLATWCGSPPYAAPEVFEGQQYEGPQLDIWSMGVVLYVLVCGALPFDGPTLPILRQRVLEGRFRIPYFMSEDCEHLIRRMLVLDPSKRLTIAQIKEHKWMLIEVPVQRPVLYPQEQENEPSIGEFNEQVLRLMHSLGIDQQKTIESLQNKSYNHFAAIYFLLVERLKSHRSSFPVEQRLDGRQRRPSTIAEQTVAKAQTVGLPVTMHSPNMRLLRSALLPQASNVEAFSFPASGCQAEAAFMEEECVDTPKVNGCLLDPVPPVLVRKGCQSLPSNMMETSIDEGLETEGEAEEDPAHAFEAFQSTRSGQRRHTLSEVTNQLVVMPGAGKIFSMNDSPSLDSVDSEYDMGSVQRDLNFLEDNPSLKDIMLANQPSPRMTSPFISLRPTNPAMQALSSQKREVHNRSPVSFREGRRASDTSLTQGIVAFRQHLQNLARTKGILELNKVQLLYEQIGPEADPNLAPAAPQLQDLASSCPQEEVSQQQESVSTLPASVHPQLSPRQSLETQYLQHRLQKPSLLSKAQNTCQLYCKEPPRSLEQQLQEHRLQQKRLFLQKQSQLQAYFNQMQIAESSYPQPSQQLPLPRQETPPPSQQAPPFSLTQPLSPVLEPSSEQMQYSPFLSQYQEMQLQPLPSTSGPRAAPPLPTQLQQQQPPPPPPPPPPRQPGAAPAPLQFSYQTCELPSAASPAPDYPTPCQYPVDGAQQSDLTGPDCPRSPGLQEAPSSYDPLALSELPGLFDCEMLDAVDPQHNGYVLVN
Chain of protein kinases (human kinome) (Homo sapiens, UniProt P53671) (P53671 whole entry): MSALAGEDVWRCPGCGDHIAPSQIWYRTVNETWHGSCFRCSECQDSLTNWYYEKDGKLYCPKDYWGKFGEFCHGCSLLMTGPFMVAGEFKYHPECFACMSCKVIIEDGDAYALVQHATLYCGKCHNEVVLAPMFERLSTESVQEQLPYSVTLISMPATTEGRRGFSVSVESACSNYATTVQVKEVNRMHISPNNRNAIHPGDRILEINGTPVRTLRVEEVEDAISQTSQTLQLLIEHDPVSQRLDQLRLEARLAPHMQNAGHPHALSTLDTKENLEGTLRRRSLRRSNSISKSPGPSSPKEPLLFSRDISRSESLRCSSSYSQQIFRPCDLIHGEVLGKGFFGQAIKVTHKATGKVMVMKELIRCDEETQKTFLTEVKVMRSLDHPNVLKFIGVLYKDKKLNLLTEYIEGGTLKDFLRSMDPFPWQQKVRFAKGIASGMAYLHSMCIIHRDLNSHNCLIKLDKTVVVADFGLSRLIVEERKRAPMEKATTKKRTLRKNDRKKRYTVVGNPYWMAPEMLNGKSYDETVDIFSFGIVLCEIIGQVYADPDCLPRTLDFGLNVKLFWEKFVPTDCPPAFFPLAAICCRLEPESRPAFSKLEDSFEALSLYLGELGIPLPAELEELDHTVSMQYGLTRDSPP

In the case of Cc1ncsc1-c1ccc([C@H](C)NC(=O)[C@@H]2C[C@@H](O)CN2C(=O)[C@@H](NC(=O)CCOCCOCCN2CCN(c3ccc(Nc4ncc(Cl)c(Nc5ccccc5S(=O)(=O)C(C)C)n4)cc3)CC2)C(C)(C)C)cc1 [FMF.06.098.1], the “logFC LIMK2” value ([1]; experiment wp108) is reported as −0.8226, the “logFC LIMK2” value ([1]; experiment wp114) is reported as −1.629 and the “logFC LIMK2” value ([1]; experiment wp131) is reported as −1.077. The “logFC of LIMK2” value ([1]; experiment wp108) was −0.8226, the “logFC of LIMK2” value ([1]; experiment wp114) was −1.629 and the “logFC of LIMK2” value ([1]; experiment wp131) was −1.077. For the same compound, the “logFC AURKA (O14965)” value ([2]; experiment wp114) was −0.4151, the “logFC AURKA (O14965)” value ([2]; experiment wp131) was −0.3471 and the “logFC of SIK2” value ([3]; experiment wp114) was −0.4985. The “logFC of SIK2” value ([3]; experiment wp131) was −0.602, the “logFC SIK2 (Q9H0K1)” value ([3]; Experiment wp114) was −0.4985 and the “logFC SIK2 (Q9H0K1)” value ([3]; experiment wp131) was −0.602. For the same compound, the logFC ([4]; ULK1 (O75385) protein abundance, degrader vs DMSO, down) was −0.688 and −0.9629, the “logFC ULK1” value ([4]; experiment wp108) was −0.688 and the “logFC ULK1” value ([4]; experiment wp131) was −0.9629. For the same compound, the “logFC CDK4 (P11802)” value ([5]; Experiment wp108) was −0.8731, the “logFC CDK4 (P11802)” value ([5]; experiment wp114) was −0.3781 and the “logFC CDK4 (P11802)” value ([5]; experiment wp131) was −1.029.
